In US20150038473A1, “STABLE POVIDONE-IODINE COMPOSITIONS WITH STEROIDS OR NON-STEROIDAL ANTI-INFLAMMATORIES” (FORESIGHT BIOTHERAPEUTICS, INC., priority 2011, published 2015):
“And” between values parts separate entries of the source, which are not always exact repeats. Equal entries are not always repeated.

Legend:
[1] = Stability testing of steroids combined with povidone iodine (PVP-I, 0.4%), HPLC/UV with LC-MS/MS confirmation; conditions: for degradation products observed: two week and/or one month samples in the presence of PVP-I 0.4%
Protocol: PVP-I was prepared in water at the concentration of 100 mg/mL (10%). One milliliter of the solution, suspension, or emulsion was mixed with 40 μL of 10% PVP-I in 1.5 mL amber glass vials, followed by storage under both room temperature and 40° C. for 2 weeks and one month. The resultant samples in the presence of PVP-I were analyzed using HPLC. The four steroid levels were measured against the reference standard samples stored under room temperature in the absence of PVP-I (0.4%).
Weigh 1 g of PVP-I and dissolve in 10 mL of water.
Aliquot 1 mL of ophthalmic solution (USP, 0.1%) into eight amber HPLC vials to give the following samples:
Used the resultant samples as time zero samples for HPLC analysis.
The same as Method 1 except the gradient was changed as follows: […]
The software provided with the HPLC system (LCSolution™ software, version 1.23, installed by SHIMADZU) was used to integrate the peak area.
The measured peak area was converted into concentrations (μg/mL) using the following equation: […]
HPLC Methods: The same as HPLC Method 1, 2, and 3 under Section 2.4.
The Day 0, Two Week, and One Month stability test samples were analyzed with reference standard samples (stored at room temperature in the absence of PVP I) using HPLC Method 1. The sample in the absence of PVP-I with the same concentration of dexamethasone phosphate as those stability samples at the presence of PVP-I was stored in the same stability chamber at 40° C. for one month as control sample. The control sample was analyzed under the same conditions. The concentrations of dexamethasone phosphate in the stability samples were calculated. The HPLC/UV chromatograms of all reference standards and stability testing samples are depicted in FIG. 6 to FIG. 13.
(§1) The Day 0, Two Week, and One Month stability test samples were analyzed with reference standard samples (stored at room temperature in the absence of PVP I) using HPLC Method 2. The sample in the absence of PVP-I with the same concentration of prednisolone acetate as those stability samples at the presence of PVP-I was stored in the same stability chamber at 40° C. for two week and one month as control samples. The control samples were analyzed under the same conditions. The concentrations of prednisolone acetate in the stability samples were calculated. The data were summarized in Table V. The HPLC/UV chromatograms of all reference standards and stability testing samples are depicted in FIG. 18 to FIG. 23.
as §1, with “3.” for “2.”, “loteprednol etabonate” for “prednisolone acetate”, “calculated.” for “calculated. The data were summarized in Table V.”, “28” for “18”, “33.” for “23.”
The Day 0, Two Week, and One Month stability test samples were analyzed with reference standard samples (stored at room temperature in the absence of PVP I) using HPLC Method 3. The sample in the absence of PVP-I with the same concentration of difluprednate as those stability samples at the presence of PVP-I was stored in the same stability chamber at 40° C. for two week and one month as control samples. The control samples were analyzed under the same conditions. The concentrations of difluprednate in the stability samples were calculated.

[2] = Stability testing of steroids and NSAIDS combined with 0.6% povidone iodine at room temperature
Protocol: Steroids and NSAIDS were mixed with PVP-I at the concentration of 0.6% w/w on Day 1. The resultant mixtures will be split to glass vials and stored at room temperature. fluorometholone alcohol, medrysone, prednisone sodium phosphate, rimexolone, hydrocortisone, hydrocortisone acetate, lodoxamide tromethamine, nepafenac, bromfenac, and ketorolac. Testing timepoints included day 0 (Time Zero), and week 4. Tests were conducted at room temperature. The testing samples were analyzed using liquid chromatography and tandem mass spectrometry (LC/MS/MS) methods at Day 0, and Week 4. The steroids and NSAIDS standards were also analyzed and steroids and NSAIDS levels in testing samples were determined.
For Tables VIII-XIII, a: Nominal concentration in HPLC samples; b: Calculated concentration in HPLC samples; c: Dilution factor; d: Calculated concentration in stability samples; e: Spiked 50 μL of H2O and stored at room temperature without PVP-I.

[3] = 2 weeks, 40° C. control, stored without PVP-I
[4] = 2 weeks, 40° C., with PVP-I 0.4%
[5] = 2 weeks, room temp, with PVP-I 0.4%
[6] = Day 0, room temp, with PVP-I 0.4%, mean of replicates
[7] = Day 0, room temp, with PVP-I 0.4%, single replicates
[8] = one month, 40° C. control, stored without PVP-I
[9] = one month, 40° C., with PVP-I 0.4%, single samples
[10] = one month, room temp, with PVP-I 0.4%
[11] = Day 0, room temperature, 0.6% PVP-I, mean of replicates
[12] = Day 0, room temperature, 0.6% PVP-I, single replicates
[13] = four weeks control, spiked 50 μL of H2O, room temperature without PVP-I
[14] = four weeks, room temperature, 0.6% PVP-I, mean of replicates
[15] = four weeks, room temperature, 0.6% PVP-I, single replicates
[16] = one month, 40° C., with PVP-I 0.4%, mean of two runs

Structure (SMILES) | % of Day 0 [1, 3] [%] | % of Std [1, 3] [%] | % of Day 0 [1, 4] [%] | % of Std [1, 4] [%] | % of Day 0 [1, 5] [%] | % of Std [1, 5] [%] | % of Std [1, 6] [%] | % of Std [1, 7] | % of Day 0 [1, 8] [%] | % of Std [1, 8] [%] | % of Day 0 [1, 9] | % of Day 0 [1, 10] [%] | % of Std [2, 11] [%] | % of Std [2, 12] | % of Day 0 [2, 13] [%] | % of Std [2, 13] [%] | % of Day 0 [2, 14] [%] | % of Std [2, 14] [%] | % of Day 0 [2, 15] | % of Std [2, 15] | further results
CC(=O)OCC(=O)[C@@]1(O)CC[C@H]2[C@@H]3CCC4=CC(=O)C=C[C@]4(C)[C@H]3[C@@H](O)C[C@@]21C [Prednisolone Acetate] | 100.74 | 100.74 | 96.60 | 101.08 | 99.24 | 103.84 | 104.64 | 104.83% and 104.45% | 100.29 | 100.29 | 96.79% | 95.66 | – | – | – | – | – | – | – | – | % of Std [1, 9]: 101.28%; % of Std [1, 10]: 100.10%
CCOC(=O)O[C@]1(C(=O)OCCl)CC[C@H]2[C@@H]3CCC4=CC(=O)C=C[C@]4(C)[C@H]3[C@@H](O)C[C@@]21C [Loteprednol Etabonate] | 101.69 | 101.69 | 100.07 | 100.54 | 101.43 | 101.91 | 100.48 | 101.00% and 99.95% | 97.64 | 97.64 | 96.02% | 100.72 | – | – | – | – | – | – | – | – | % of Std [1, 9]: 96.48%; % of Std [1, 10]: 101.20%
CCCC(=O)O[C@]1(C(=O)COC(C)=O)CC[C@H]2[C@@H]3C[C@H](F)C4=CC(=O)C=C[C@]4(C)[C@@]3(F)[C@@H](O)C[C@@]21C [Difluprednate] | 89.50 | 89.50 | 99.30 | 95.57 | 103.23 | 99.36 | 96.25 | 95.78% and 96.72% | 97.86 | 97.86 | 100.24% | 104.47 | – | – | – | – | – | – | – | – | % of Std [1, 9]: 96.48%; % of Std [1, 10]: 100.56%
CC(=O)[C@@]1(O)CC[C@H]2[C@@H]3C[C@H](C)C4=CC(=O)C=C[C@]4(C)[C@@]3(F)[C@@H](O)C[C@@]21C [Fluorometholone, fluorometholone] | – | – | – | – | – | – | – | – | – | – | – | – | 101.28 | 101.42% and 101.14% | 97.97 | 99.22 | 98.44 | 99.7 | 98.03% and 98.87% | 99.28% and 100.14% | –
Nc1c(CC(=O)O)cccc1C(=O)c1ccc(Br)cc1 [Bromfenac, bromfenac] | – | – | – | – | – | – | – | – | – | – | – | – | 98.86 | 99.74% and 97.96% | 101.19 | 100.03 | 99.37 | 98.23 | 100.01% and 98.73% | 98.87% and 97.6% | –
NC(=O)Cc1cccc(C(=O)c2ccccc2)c1N [Nepafenac, nepafenac] | – | – | – | – | – | – | – | – | – | – | – | – | 98.7 | 98.22% and 99.18% | 100.06 | 98.76 | 97.2 | 95.94 | 97.83% and 96.58% | 96.56% and 95.32% | –
CCC(=O)[C@@]1(C)[C@H](C)C[C@H]2[C@@H]3CCC4=CC(=O)C=C[C@]4(C)[C@H]3[C@@H](O)C[C@@]21C [Rimexolone, rimexolone] | – | – | – | – | – | – | – | – | – | – | – | – | 99.67 | 98.83% and 100.5% | 97.41 | 97.09 | 99.88 | 99.55 | 100.23% and 99.53% | 99.9% and 99.2% | –
C[C@]12C=CC(=O)C=C1CC[C@@H]1[C@@H]2C(=O)C[C@@]2(C)[C@H]1CC[C@]2(O)C(=O)COP(=O)([O-])[O-].[Na+].[Na+] [Prednisone sodium phosphate, prednisone sodium phosphate] | – | – | – | – | – | – | – | – | – | – | – | – | 97.76 | 97.93% and 97.59% | 102.87 | 100.57 | 95.66 | 93.52 | 95.1% and 96.23% | 92.97% and 94.07% | –
C[C@@H]1C[C@H]2[C@@H]3CCC4=CC(=O)C=C[C@]4(C)[C@@]3(F)[C@@H](O)C[C@]2(C)[C@@]1(O)C(=O)COP(=O)([O-])[O-].[Na+].[Na+] [Dexamethasone Sodium Phosphate] | – | – | 84.57 | – | 83.04 | – | – | – | – | – | 84.42% and 83.76% | 84.24 | – | – | – | – | – | – | – | – | stability in the presence of PVP-I (result in words) ([1]; PVP-I 0.4%, room temperature and 40° C., up to one month): not stable; % of Day 0 [1, 16]: 84.09%; % of Std [1, 16]: 87.00%; degradation products observed [1]: three additional peaks; degradation products observed ([1]; listed as dexamethasone phosphate): Three degradation products (D1, D2, and D3) were observed
N#Cc1cc(NC(=O)C(=O)O)c(Cl)c(NC(=O)C(=O)O)c1.NC(CO)(CO)CO.NC(CO)(CO)CO [lodoxamide, lodoxamide tromethamine] | – | – | – | – | – | – | – | – | – | – | – | – | – | – | – | – | – | – | – | – | stability in PVP-I (result in words) ([2]; 0.6% PVP-I, room temperature, week 4): appeared to be stable
